From patent publication US9895335B2, “Ophthalmic compositions containing a nitric oxide donor” (NICOX SCIENCE IRELAND, priority 2013, dated 2018) come the findings set out here.

For this assay, the system named is hypertonic saline-induced IOP increase in rabbits. The assay can be described thus: Intraocular pressure (IOP) lowering activity in hypertonic saline-induced IOP increase in rabbits. Format: in vivo, New Zealand White rabbits. Also noted: unit not given here. The settings on record: topical, versus vehicle and versus basal IOP before hypertonic saline injection. Here is the method: Intraocular Pressure (IOP) Lowering Activity in Hypertonic Saline-Induced IOP Increase in Rabbits
The Intraocular pressure (TOP) lowering activity of compound (Ia) (Example 1) was assessed in an animal model of elevated IOP.
Adults male New Zealand White rabbits weighting 1.8-2.0 Kg were used in the experiments.
IOP was measured using a Tono-Pen XL prior to hypertonic saline injection (basal) and at 30, 60, 120 and 240 min thereafter. Vehicle (5% cremophor-EL; 0.3% DMSO; 0.2 mg/ml bac in PBS pH 6.0,) or compound (Ia) dissolved in the vehicle at different concentrations (0.1%, 0.3% and 1%) was instilled as eye drops immediately after hypertonic saline injection. Eyes were randomly assigned to different treatment groups. Vehicle or compound (Ia) was directly instilled into the conjunctiva pocket at the desired doses. One drop of 0.4% oxybuprocaine hydrochloride (Novesine, Sandoz) was instilled in each eye immediately before each set of pressure measurements.
Results are reported in Table in which the ocular hypotensive activity of compound (Ia) at different is expressed as IOP change (at 60 and 120 minutes following topical administration) versus vehicle and versus IOP at basal before hypertonic saline injection.

In turn, `CCCC(=O)OCCCCO[N+](=O)[O-]` [Compound (Ia), 4-Nitrooxybutan-1-Ol Butyrate] returned an IOP change (0.1% eye drops, 60 min after administration) of −10.3 ± 0.3; an IOP change (0.1% eye drops, 120 min after administration) of −5 ± 1.8; an IOP change (0.3% eye drops, 60 min after administration) of −16.5 ± 3.8; an IOP change (0.3% eye drops, 120 min after administration) of −9 ± 2.1; an IOP change (1% eye drops, 60 min after administration) of −21.1 ± 4.5; an IOP change (1% eye drops, 120 min after administration) of −15.1 ± 2.3.
